The record followed here is US20110230481A2, “DERIVATIVES OF TETRABROMOBENZIMIDAZOLE, A PROCESS FOR THE PREPARATION THEREOF, A PHARMACEUTICAL COMPOSITION COMPRISING THE SAME, A METHOD OF USING THE SAME, A METHOD FOR MODULATING OR REGULATING SERINE/THREONINE KINASES, AND SERINE/THREONINE KINASES MODULATING AGENT” (SELVITA S.A., priority 2009, published 2011).

pIC50: −log10 of the molar value. Like-named read-outs stand apart in the source and are kept apart here.

Common to all, as to experiment: Growth inhibition test (MTS)
Holding throughout (format): cell-based

Assay [1] relates to human myelomonocytic, biphenotypic leukemia MV4-11 cells. Conditions: MV-4-11, 72 hours, read-out: Cytotoxicity in MTS assay (ED50); for pIC50: Homo sapiens, MV4-11. As for the experimental part: (§1) Ten thousand cells of human myelomonocytic, biphenotypic leukemia MV4-11 were inoculated into each well of a 96-well microplate (manufactured by Corning Corp.) using Iscove's MDM medium (culture medium) containing 10% fetal calf serum (FCS). The same day, a dimethyl sulfoxide (DMSO) solution of each test compound prepared in a concentration of 10 mmol/L was further diluted with DMSO to the desired concentrations (0.1, 0.5, 1, 2.5, 5 and 10 micromol/L), and the diluted solution was added to each well. The individual wells were further cultured in 5% carbon dioxide at 37° C. for 72 hours. After completion of the culture, 10 μl MTS (3-(4,5-Dimethyl-2-thiazolyl)-5-(carboxymethoxyphenyl)-2-(4-sulfophenyl)-2H-tetrazolium, inner salt assay (CellTiter96® AQueous One Solution Cell Proliferation Assay, Promega) was added to each well, and culturing was performed in 5% carbon dioxide at 37° C. for 2 hours. Using a microplate spectrophotometer (Synergy 2 multi-mode microplate reader (BioTek)), the absorbance of each well was measured at 490 nm. The value for cells not incorporated with a test compound was designated as 100%. By comparing these values with the absorbance difference obtained at the well in which each test compound was added, the cell viability (% viability) after treatment with the test compound was calculated.
(Tetrazolium assays rely on reduction of a dye to a coloured formazan, in cell work by metabolically active cells.)

The test system of assay [2] is human acute promyelocytic leukemia HL-60 cells. Conditions: 72 hours. As to the method: as §1, with “acute promyelocytic” for “myelomonocytic, biphenotypic”, “HL-60” for “MV4-11”, “RPMI 8226” for “Iscove's MDM”
In assay [3] the test system is human colorectal adenocarcinoma SW480 cells. The following applies: 72 hours. As for the experimental part:
as §1, with “Two” for “Ten”, “colorectal adenocarcinoma SW480” for “myelomonocytic, biphenotypic leukemia MV4-11”, “Corp.), and” for “Corp.)”, “DMEM/Ham's F121:1” for “Iscove's MDM”, “5%” for “10%”

Assay [4] has as its system human acute lymphocytic leukemia E6.1 Jurkat cells. Conditions: 72 hours, read-out: Cytotoxicity in MTS assay (ED50); for pIC50: Homo sapiens. As for the experimental part: as §1, with “Twenty” for “Ten”, “acute lumphocytic” for “myelomonocytic, biphenotypic”, “E6.1 Jurkat” for “MV4-11”, “[…]” for “Iscove's MDM”
Assay [5] deals with human prostate carcinoma DU145 cells. Conditions: 72 hours. As to the method: as §1, with “Two” for “Ten”, “prostate carcinoma DU145” for “myelomonocytic, biphenotypic leukemia MV4-11”, “Corp.), and” for “Corp.)”, “DMEM” for “Iscove's MDM”, “innersalt” for “inner salt”

Consider `NCCCNc1nc2c(Br)c(Br)c(Br)c(Br)c2[nH]1` [Compound 11, N-(3-aminopropyl)-4,5,6,7-tetrabromo-1H-benzo[d]imidazol-2-amine], for which the pIC50 was 5.75 in assay [1] and 5.76 in assay [4]. For the same compound, the results for the “Cytotoxicity in MTS assay (ED50)” value in assay [2], in assay [3] and in assay [5] were 6.12 µM, 3.46 µM and 7.62 µM, respectively.

For `Brc1c(Br)c(Br)c2[nH]c(NCCN3CCCCC3)nc2c1Br` [Compound 13, 4,5,6,7-tetrabromo-N-(2-(piperidin-1-yl)ethyl)-1H-benzo[d]imidazol-2-amine], the pIC50 in assay [1] is 5.50; in assay [4] it was 5.87. Besides, the “Cytotoxicity in MTS assay (ED50)” value in assay [2] stood at 3.29 µM; in assay [5], 4.1 µM.

As to `Brc1c(Br)c(Br)c2[nH]c(NCCN3CCCC3)nc2c1Br` [Compound 14, 4,5,6,7-tetrabromo-N-(2-(pyrrolidin-1-yl)ethyl)-1H-benzo[d]imidazol-2-amine], the pIC50 is 5.89 in assay [1] and 5.58 in assay [4]. Also, the “Cytotoxicity in MTS assay (ED50)” value in assay [2] came out at 2.04 µM; in assay [5], 3.14 µM.

As for `Brc1c(Br)c(Br)c2[nH]c(NCCN3CCOCC3)nc2c1Br` [Compound 16, 4,5,6,7-tetrabromo-N-(2-morpholinoethyl)-1H-benzo[d]imidazol-2-amine], the figures for the pIC50 in assay [1] and in assay [4] were 5.66 and 5.61, respectively. Moreover, the “Cytotoxicity in MTS assay (ED50)” value is greater than 10 µM in assay [2] and 8.64 µM in assay [5].

Turning to `Brc1c(Br)c(Br)c2[nH]c(N3CCNCC3)nc2c1Br` [Compound 20, 4,5,6,7-tetrabromo-2-(piperazin-1-yl)-1H-benzo[d]imidazole], the pIC50 was 6.10 in assay [1] and 5.66 in assay [4]. Further, the “Cytotoxicity in MTS assay (ED50)” value in assay [2] was determined as 7.88 µM; in assay [3], 4.91 µM; in assay [5], 9.27 µM.

Take `CN1CCN(c2nc3c(Br)c(Br)c(Br)c(Br)c3[nH]2)CC1` [Compound 21, 4,5,6,7-tetrabromo-2-(4-methylpiperazin-1-yl)-1H-benzo[d]imidazole]: the pIC50 in assay [1] is 5.42; in assay [4] it was 5.58. Further, the “Cytotoxicity in MTS assay (ED50)” value in assay [2] is greater than 10 µM; in assay [5], 9.54 µM.

Turning to `Brc1c(Br)c(Br)c2c(Br)n[nH]c2c1Br` [Compound K64, reference compound], the IC50 in assay [1] and in assay [4] was greater than 10 µM each time. Also, the “Cytotoxicity in MTS assay (ED50)” value in assay [3] is 9.13 µM; in assay [5] it was greater than 10 µM.

In the case of `CN(C)c1nc2c(Br)c(Br)c(Br)c(Br)c2n1CC(=O)O` [Compound K66, reference compound], the IC50 in assay [1] and in assay [4] was greater than 10 µM in each case. Besides, the “Cytotoxicity in MTS assay (ED50)” value in assay [3] and in assay [5] was greater than 10 µM in each case.

As for `CN(C)c1nc2c(Br)c(Br)c(Br)c(Br)c2[nH]1` [DMAT, reference compound], the IC50 in assay [1] is reported as 3.15 µM; in assay [4], 8.18 µM. Moreover, the “Cytotoxicity in MTS assay (ED50)” value in assay [2] and in assay [5] was greater than 10 µM in each case.

Turning to `Brc1c(Br)c(Br)c2[nH]nnc2c1Br` [TBB, reference compound], the IC50 in assay [1] and in assay [4] was greater than 10 µM each time. For the same compound, the “Cytotoxicity in MTS assay (ED50)” value in assay [3] and in assay [5] was greater than 10 µM throughout.

In the case of `Brc1c(Br)c(Br)c2[nH]cnc2c1Br` [TBI, reference compound], the IC50 in assay [1] and in assay [4] was greater than 10 µM each time. In addition, the “Cytotoxicity in MTS assay (ED50)” value in assay [3] is 7.21 µM; in assay [5], greater than 10 µM.
